Assay results reported in US20050169914A1, “Novel functions for decay accelerating factor (DAF) in inflammation” (priority 2003, published 2005).
Where no end group is shown, it is not given here. The star is where a group is joined. Biotin = O=C1N[C@H]2[C@H](CS[C@H]2CCCCC(=O)*)N1

Columns and labels:
[1] = test system: OE-1 mAb binding to intact epithelial cell surface protein; test: Peptide blocking of OE-1 binding, cell surface ELISA on intact T84 cells; conditions: concentration-dependent
[2] = test system: PMN transmigration across epithelial monolayer; test: Kinetic PMN transmigration assay with DAF mimetic peptides; type: cell-based, human; conditions: for rank order of potency in kinetic PMN transmigration assay: compared to no peptide controls
Protocol: Transmigration assay. PMN transmigration assays were performed as previously described (Nicholson-Weller et al., 1994, J. Lab. Clin. Med. 123: 485-91). All epithelial experiments were performed in the physiologically-relevant basolateral-to-apical direction (i.e. inverted monolayers), unless otherwise indicated, and all HMVEC transmigration studies were performed in the apical-to-basolateral direction. Briefly, PMN (1×10^6) were added to the upper chambers of transwell inserts in which T84, KB or Caco2 cell monolayers, as indicated, were plated on the opposing side. A chemotactic gradient was established by adding n-formyl-methionyl-leucyl-phenylalanine (fMLP) to the lower chambers (1 μM for Caco2 and T84 epithelia and 10 nM for KB cells and HMVEC). PMN transmigration was carried out at 37° C. for 1 hour with KB and HMVEC monolayers and 2 hrs for T84 monolayers. Transmigrated PMN were quantified by assaying for the PMN azurophilic marker myeloperoxidase (MPO), as previously described (Lisanti et al., 1990, J. Memb. Biol. 113: 155-167). Briefly, transmigrated PMN were lysed by the addition of Triton X-100 to a final concentration 0.5%. The samples were acidified with citrate buffer (final concentration 100 mM; pH 4.2). An aliquot of sample (70 μl) was added to an equal volume of ABTS solution (1 mM ABTS (2.2′-Azino-bis(3-ethylbenzo-thiazoline-6-sulfonic acid), 0.03% H2O2, 100 mM sodium citrate buffer; pH 4.2) in a 96-well plate. The resulting color was quantitated on a plate reader at 405 nm. For kinetic transmigration and post-transmigration adhesion assays, monolayers were removed at the desired time point and placed in a new 24-well plate with HBSS and spun at 50×g for 5 min to dislodge PMN adherent to the monolayer (Liu et al., 2001, J. Biol. Chem. 276: 40156-66). PMN were quantified by MPO assay as stated above. Where indicated, polyclonal DAF antisera (a kind gift from Dr. B. Paul Morgan, University of Wales) or control polyclonal platelet-endothelial cell adhesion (PE-CAM, a kind gift from Dr. Joyce Bischoff, Children's Hospital and Harvard Medical School) antisera were used to assess transmigration.
Phage panning of OE-1. The OE-1 binding epitope was analyzed using phage display (Burritt et al., 1998, J. Biol. Chem. 273:24847-52). Briefly, sepharose-coupled OE-1 was incubated with 20-μL aliquots of the random 9-mer LL9 phage library (˜5×10^10 phage) in 1 mL HBSS containing 0.1% bovine serum albumin (phage buffer) for 2 hours at 4° C. or for 1 hour at 20° C. in a 1.5-ml microcentrifuge tube as described previously (Mazzucchelli et al., 1999, Blood 93: 1738-48). Antibody complexes were then washed five times with phage buffer and bound phage were eluted for 5 minutes in 2 mL of 0.1M glycine (pH 2.2) followed by addition of phage buffer containing 0.5% Tween 20 to the remaining cell pellet. After neutralization with Tris buffer pH 8.1, the titer of phage was determined in each fraction by plaque assay according to standard procedures. Phage elutes were then amplified in “starved” K91 E. coli on solid LB agar containing 75 μg/mL kanamycin, purified by precipitation with polyethylene glycol, and resuspended in 600 μL NaCl/HEPES buffer. An aliquot (20 μL) of purified phage was subsequently re-applied to a new aliquot of sepharose-coupled OE-1 for a total of three affinity purification and two amplification steps. Individual phage clones were then isolated, amplified, and the random peptide sequences were deduced after sequencing the unique nucleotide region of the pIII protein. As a control for OE-1-specific selection, parallel phage affinity purification steps were carried out in a 1.5-mL microcentrifuge tube in the absence of OE-1, and a sample of the recovered phage was analyzed by sequencing of the DNA insert. […]

[3] = test system: OE-1 mAb binding to denatured protein; test: Peptide blocking of OE-1 binding, western blot of T84 epithelial lysates; conditions: concentration-dependent
Protocol: Immunoblotting experiments. Indicated cells were grown to confluency on 100 mm plastic Petri dishes. The monolayers were lysed for 10 min in 1 ml lysis buffer (150 mM NaCl, 25 mM Tris, pH 8.0, 5 mM EDTA, 2% n-octylglucoside, and 10% mammalian tissue protease inhibitor cocktail; Sigma, St. Louis, Mo.), scraped and collected into microfuge tubes. After spinning at 14,000×g to remove cell debris, the pellet was discarded. Proteins were solublized in non-reducing Laemmli sample buffer and heated to 100° C. for 5 minutes. Samples were resolved on a 10% polyacrylamide gel and transferred to nitrocellulose membranes. The membranes were blocked 1 hr at room temperature in PBS supplemented with 0.2% Tween-20 (PBS-T) and 4% BSA. […] The wash was repeated and proteins were detected by enhanced chemiluminescence.
Phage panning of OE-1. The OE-1 binding epitope was analyzed using phage display (Burritt et al., 1998, J. Biol. Chem. 273:24847-52). […] After neutralization with Tris buffer pH 8.1, the titer of phage was determined in each fraction by plaque assay according to standard procedures. […] As a control for OE-1-specific selection, parallel phage affinity purification steps were carried out in a 1.5-mL microcentrifuge tube in the absence of OE-1, and a sample of the recovered phage was analyzed by sequencing of the DNA insert. […]

[4] = test system: surface of intact PMN; test: Binding of biotinylated peptide to intact PMN (rhodamine-streptavidin fluorescence); set-up: species or system human; conditions: peptide 10 μg/ml, 4° C., 1 hr
Protocol: In subsets of experiments, peptides were biotinylated (sulfo-NHS-Biotin, Pierce, Rockford, Ill.), purified by reversed phase HPLC, and tested for binding to PMN. Briefly, PMN (10^7 PMN in 1 ml) were incubated with biotinylated peptide DAF peptide or control peptide (each at 10 μg/ml) at 4° C. for 1 hr. PMN were washed three times in HBSS, and incubated with rhodamine-labeled steptavidin (Roche Diagnostics, Indianapolis, Ind.). Samples were aliquoted on a 96 well plate and fluorescence intensity (excitation, 550 nm; emission, 580 nm), expressed as relative fluorescence units (RFU) was measured on a fluorescent plate reader (Cytofluor™2300, Millipore Inc., Bedford, Mass.).

[5] = test system: surface expressed DAF; test: DAF suppression in Caco2 cells (immunoprecipitation of surface biotinylated protein); type: cell-based, human; conditions: Caco2, relative to oligonucleotide controls, n=3
Protocol: DAF suppression studies. Caco2 cells were chosen for these experiments because they are more easily transfected than T84 cells. Confluent Caco2 monolayers were dislodged from T175 flasks with trypsin. Cells were washed once in serum-free DMEM. To 100 μl serum free media, 10 μl DAF siRNA ribonucleotide (20 μM each of sense 5′-[…]dTdT-3′ (SEQ ID NO: 31) and antisense 3′-dTd[…]-5′ (SEQ ID NO: 32), synthesized by Xeragon, Inc., Germantown, Md.) or 10 μl phosphorothioate derivatives of DAF antisense oligonucleotide (20 μM; 5′-[…]-3′ (SEQ ID NO: 33), synthesized by Oligo's Etc., Wilsonville, Oreg.) was added. In both cases, a control oligonucleotide (5′-ATG GAG GGC GCC GGC-3′, SEQ ID NO: 34) was used in parallel. To these solutions 10 μl Superfect transfection reagent (Qiagen, Valencia, Calif.) was added. The tubes were vortexed and incubated at room temperature for 10 min to allow transfection complexes formation. Following this incubation, 400 μl of serum containing media was added to the complexes, followed by 800 μl of cell suspension. […]
As a third approach, antisense oligonucleotides and siRNA technologies were utilized to diminish surface expressed DAF and examined the kinetics of PMN migration across such monolayers of epithelia. […] In panels B and C, the influence of siRNA (diamonds), antisense oligonucleotide (squares) on the kinetics of transmigration was assessed. […]

[6] = test system: PMN transmigration across Caco2 monolayers; test: Kinetic PMN transmigration across DAF-depleted Caco2 monolayers; type: cell-based, human
Protocol: Transmigration assay. PMN transmigration assays were performed as previously described (Nicholson-Weller et al., 1994, J. Lab. Clin. Med. 123: 485-91). All epithelial experiments were performed in the physiologically-relevant basolateral-to-apical direction (i.e. inverted monolayers), unless otherwise indicated, and all HMVEC transmigration studies were performed in the apical-to-basolateral direction. Briefly, PMN (1×10^6) were added to the upper chambers of transwell inserts in which T84, KB or Caco2 cell monolayers, as indicated, were plated on the opposing side. […] Transmigrated PMN were quantified by assaying for the PMN azurophilic marker myeloperoxidase (MPO), as previously described (Lisanti et al., 1990, J. Memb. Biol. 113: 155-167). […] An aliquot of sample (70 μl) was added to an equal volume of ABTS solution (1 mM ABTS (2.2′-Azino-bis(3-ethylbenzo-thiazoline-6-sulfonic acid), 0.03% H2O2, 100 mM sodium citrate buffer; pH 4.2) in a 96-well plate. The resulting color was quantitated on a plate reader at 405 nm. For kinetic transmigration and post-transmigration adhesion assays, monolayers were removed at the desired time point and placed in a new 24-well plate with HBSS and spun at 50×g for 5 min to dislodge PMN adherent to the monolayer (Liu et al., 2001, J. Biol. Chem. 276: 40156-66). PMN were quantified by MPO assay as stated above. […]

[7] = test system: CD55 mRNA expression; test: Hypoxia-induced CD55 mRNA expression in Caco2 cells with transcriptional inhibitor; type: cell-based, human; conditions: DRB 10 μM
Protocol: First, it was determined whether hypoxia-induced CD55 results from increased transcriptional activity. Caco2 cells were subjected to hypoxia in the presence or absence of the transcriptional inhibitor 5,6-dichlorobenzimidazole riboside (DRB, 10 μM) and assessed for changes in CD55 mRNA expression. […] Consequently, increases in CD55 by hypoxia required new mRNA synthesis.

“SPLAQAVRSSSR [scrambled peptide, scrambled control peptide, reference compound]” was tested. Which “blocking of OE-1 binding to intact epithelial cell surface protein” value [1] did it give?
The value was “but not a scrambled peptide”.

EVEHWYRSG was tested. Which “rank order of potency in kinetic PMN transmigration assay” value (“rank order of potency” for short) ([2]; 1 mM final concentration) did it give?
The value was “Wild-type>Peptide 2=Peptide 1>Peptide 3”.

And the “apical accumulation of PMN” value ([2]; PMN and epithelial pre-exposure to increasing peptide concentrations, p<0.025)?
Its value is “increased apical accumulation of PMN”.

And the PMN transmigration ([2]; PMN and epithelial pre-exposure to increasing peptide concentrations, p<0.05)?
The PMN transmigration was “diminished PMN transmigration”.

What about the “blocking of OE-1 binding to intact epithelial cell surface protein” value [1] of the same compound?
Its value is “blocked OE-1 binding”.

What about the “blocking of OE-1 binding to denatured protein” value [3] of the same compound?
The value was “blocked OE-1 binding”.

Biotin-EVEHWYRSG was tested. Which “fluorescence intensity (binding to surface of intact PMN)” value [4] did it give?
The value was 2,188±383 RFU.

EVEHWYASG [Peptide 4] was tested. Which “effect on PMN transmigration relative to no peptide controls” value ([2]; 1 mM final concentration) did it give?
The value was “appeared to enhance PMN transmigration”.

“siRNA: DAF siRNA ribonucleotide, sense 5′-AAUUCCUGGCGAGAAGGACUCdTdT-3′, antisense 3′-dTdTUUAAGGACCGCUCUUCCUGAG-5′ (sense AAUUCCUGGCGAGAAGGACUCNN; antisense NNUUAAGGACCGCUCUUCCUGAG; chemistry not fully specified; one strand is listed 3' to 5')” was tested. Which “decrease in surface expressed DAF” value [5] did it give?
Its value is 63±12%.

And the “PMN transmigration across treated cells” value ([6]; Caco2, relative to mock or oligonucleotide control, p<0.025)?
The value was “significantly diminished”.

What about the “apical PMN in DAF-depleted epithelia” value ([6]; Caco2, p<0.05 by ANOVA) of the same compound?
Its value is “significant increase over time”.

OC[C@H]1O[C@@H](n2cnc3cc(Cl)c(Cl)cc32)[C@H](O)[C@@H]1O [DRB, 5,6-dichlorobenzimidazole riboside] was tested. Which “decrease in CD55 inducibility by hypoxia” value [7] did it give?
Its value is 87±7%.

For AVAHWYRSG [Peptide 1], which “rank order of potency” value ([2]; 1 mM final concentration) is on record?
The value was “Wild-type>Peptide 2=Peptide 1>Peptide 3”.

EVEHAYRSG [Peptide 2] was tested. Which “rank order of potency” value ([2]; 1 mM final concentration) did it give?
Its value is “Wild-type>Peptide 2=Peptide 1>Peptide 3”.

Which “rank order of potency” value ([2]; 1 mM final concentration) does the source give for EVEHWARSG [Peptide 3] here?
The value was “Wild-type>Peptide 2=Peptide 1>Peptide 3”.
